EC50 data for 19 compounds are collected here from patent US7687526B2, “Benzo-fused compounds for use in treating metabolic disorders” (Amgen Inc., priority 2006, dated 2010).

pEC50: −log10 of the molar value.

One test relates to Human islets. The experiment in a line: Insulin secretion assay. The test is classed as cell-based. The settings on record: human islet cells, KRBH with 11.2 mM glucose, insulin measured by SPA; read-out: EC50 of stimulated insulin secretion from islet cells. As to the method: Human islets were isolated from cadaveric donors. Islets were treated with trypsin (0.25% (w/v) and cells were seeded in 96-well plates containing 3,000 cells per well. Cells were cultured in Roswell Park Memorial Institute (RMPI) media containing 10% fetal bovine serum.
For determination of insulin secretion, media was removed from islet cells and replaced with Krebs-Ringer bicarbonate buffer containing 10 mM HEPES (KRBH) and 2 mM glucose. After one hour incubation, media was replaced with KRBH containing 11.2 mM glucose and test compounds. Insulin released into the medium from the islet cells was measured using scintillation proximity assay (SPA).
`CC1(C)CCC(C)(C)c2cc(COc3ccc(C(CC(=O)O)c4cncnc4)cc3)ccc21` (racemic) [Example 9, (R/S)-3-Pyrimidin-5-yl-3-[4-(5,5,8,8-tetramethyl-5,6,7,8-tetrahydro-naphthalen-2-ylmethoxy)-phenyl]-propionic acid]: the pEC50 (in general, −log10 of the EC50, conventionally taken in molar units) is greater than 6.00.

Consider `Cn1cncc1[C@@H](CC(=O)O)c1ccc(OCc2ccc3c(c2)C(C)(C)CCC3(C)C)cc1` [Example 4, (S)-3-(1-methyl-1H-imidazol-5-yl)-3-(4-((5,5,8,8-tetramethyl-5,6,7,8-tetrahydronaphthalen-2-yl)methoxy)phenyl)propanoic acid], for which the pEC50 was greater than 6.00.

The target in another test is T1, human GPR40 (Homo sapiens, UniProt O14842).
T1 construct: expressed in transfected cells; host or cells: CHO cells
T1 sequence (O14842 whole entry): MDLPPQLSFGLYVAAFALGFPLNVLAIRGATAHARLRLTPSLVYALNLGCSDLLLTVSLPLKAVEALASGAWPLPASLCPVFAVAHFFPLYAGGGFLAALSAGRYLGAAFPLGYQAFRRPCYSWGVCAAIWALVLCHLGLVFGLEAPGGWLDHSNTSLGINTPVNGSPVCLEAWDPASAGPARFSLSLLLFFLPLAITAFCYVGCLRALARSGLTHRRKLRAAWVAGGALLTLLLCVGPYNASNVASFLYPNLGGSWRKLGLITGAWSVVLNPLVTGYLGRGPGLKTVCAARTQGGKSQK
The experiment in a line: Cell-based aequorin assay using human GPR40. The conditions noted are these: CHO cells stably transfected with GPR40 and Aequorin; 0.01% HSA; aequorin luminescence; read-out: Relative EC50. As to the method:
Cell-based aequorin assays were employed to characterize the modulatory activity of compounds on the GPR40 signaling pathway. In an exemplary assay, CHO cells were stably transfected with both GPR40 and Aequorin (Euroscreen). Cells were detached from the tissue culture dish with 2 mL of trypsin (0.25% (w/v)). Trypsinization was halted with 28 mL of Hanks Buffered Salt Solution containing 20 mM Hepes (H/HBSS) and 0.01% fatty acid-free human serum albumin (HSA). Coelantrazine is added to 1 ug/mL, and the cells were incubated for 2 hours at room temperature. Compounds were dissolved in DMSO for preparation of 10 mM stock solutions. Compounds were diluted in H/HBSS containing 0.01% HSA. Serial dilutions of the test compounds were prepared to determine dose response.
Aequorin luminescence measurements were made using an EG&G Berthold 96-well luminometer, and the response was measured over a 20 second interval after cells and compounds were mixed. The maximum relative light units was plotted to determine dose response. The EC50 (effective concentration to reach 50% maximal response) was determined from the dose response plot.
Table 1 presents representative data (EC50 values) obtained for exemplary compounds of the invention for the relative activation of human GPR40. […]
In the case of `CC#CC(CC(=O)O)c1ccc(OCc2ccc3c(c2)C[C@@H](c2ccc(Cl)cc2)O3)cc1` (single isomer, unassigned) [Example 76], the negative-log EC50 (pEC50) was 7.00 to 8.00.

`CC#CC(CC(=O)O)c1ccc(OCc2ccc3c(c2)C[C@H](c2ccc(Cl)cc2)O3)cc1` (single isomer, unassigned) [Example 77]: the pEC50 was 7.00 to 8.00.

Consider `CC1(C)CCC(C)(C)c2cc(COc3ccc([C@H](CC(=O)O)c4ncco4)cc3)ccc21` [Example 12, (S)-3-Oxazol-2-yl-3-[4-(5,5,8,8-tetramethyl-5,6,7,8-tetrahydro-naphthalen-2-ylmethoxy)-phenyl]-propionic acid], for which the negative-log EC50 (pEC50) is 6.00 to 7.00.

On to `CC#C[C@@H](CC(=O)O)c1ccc(OCc2ccc3c(c2)C(C)(C)CCC3(C)C)cc1` [Example 19, (S)-3-(4-((5,5,8,8-Tetramethyl-5,6,7,8-tetrahydronaphthalen-2-yl)methoxy)phenyl)hex-4-ynoic acid], for which the pEC50 is 5.00 to 6.00.

Turning to `CC#C[C@H](CC(=O)O)c1ccc(OCc2ccc3c(c2)C(C)(C)CCC3(C)C)cc1` [Example 20, (R)-3-(4-((5,5,8,8-Tetramethyl-5,6,7,8-tetrahydronaphthalen-2-yl)methoxy)phenyl)hex-4-ynoic acid], the pEC50 was 5.00 to 6.00.

`CCC1(CC)CCC(C)(C)c2ccc(COc3ccc([C@H](CC(=O)O)c4ccon4)cc3)cc21` [Example 72, (S)-3-(4-((8,8-diethyl-5,5-dimethyl-5,6,7,8-tetrahydronaphthalen-2-yl)methoxy)phenyl)-3-(isoxazol-3-yl)propanoic acid]: the pEC50 was 7.00 to 8.00.

As for `CCC1(CC)CCC(C)(C)c2ccc(COc3ccc([C@H](CC(=O)O)c4nnnn4C)cc3)cc21` [Example 73, (S)-3-(4-((8,8-diethyl-5,5-dimethyl-5,6,7,8-tetrahydronaphthalen-2-yl)methoxy)phenyl)-3-(1-methyl-1H-tetrazol-5-yl)propanoic acid], the pEC50 is 6.00 to 8.00.

With `CC1(C)CCC(C)(C)c2cc(COc3ccc([C@H](CC(=O)O)C4=NOCC4)cc3)ccc21` [Example 74, 3-(4,5-Dihydroisoxazol-3-yl)-3-(4-((5,5,8,8-tetramethyl-5,6,7,8-tetrahydronaphthalen-2-yl)methoxy)phenyl)propanoic acid], the pEC50 was 7.00 to 8.00.

As for `Cn1ccnc1[C@@H](CC(=O)O)c1ccc(OCc2ccc3c(c2)CCCC3(C)C)cc1` [Example 75, (S)-3-(4-((5,5-dimethyl-5,6,7,8-tetrahydronaphthalen-2-yl)methoxy)phenyl)-3-(1-methyl-1H-imidazol-2-yl)propanoic acid], the pEC50 is 6.00 to 7.00.

`CC/C(C)=C/[C@@H](CC(=O)O)c1ccc(OCc2ccc3c(c2)C(C)(C)CCC3(C)C)cc1` [Example 78, (R,E)-5-Methyl-3-(4-((5,5,8,8-tetramethyl-5,6,7,8-tetrahydronaphthalen-2-yl)methoxy)phenyl)hept-4-enoic acid]: the pEC50 is 6.00 to 7.00.

Turning to `CC/C(C)=C/[C@H](CC(=O)O)c1ccc(OCc2ccc3c(c2)C(C)(C)CCC3(C)C)cc1` [Example 79, (S,E)-5-Methyl-3-(4-((5,5,8,8-tetramethyl-5,6,7,8-tetrahydronaphthalen-2-yl)methoxy)phenyl)hept-4-enoic acid], the pEC50 is 5.00 to 6.00.

With `Cn1ccnc1[C@@H](CC(=O)O)c1ccc(OCc2ccc3c(c2)C(C)(C)CC3(C)C)cc1` [Example 80, (S)-3-(1-Methyl-1H-imidazol-2-yl)-3-(4-((1,1,3,3-tetramethyl-2,3-dihydro-1H-inden-5-yl)methoxy)phenyl)propanoic acid], the pEC50 was 6.00 to 7.00.

Consider `Cn1ccnc1[C@@H](CC(=O)O)c1ccc(OCc2ccc3c(c2)C(=O)CCC3(C)C)cc1` [Example 81, (S)-3-(4-((5,5-Dimethyl-8-oxo-5,6,7,8-tetrahydronaphthalen-2-yl)methoxy)phenyl)-3-(1-methyl-1H-imidazol-2-yl)propanoic acid], for which the pEC50 was 5.00 to 6.00.

For `Cn1ccnc1[C@@H](CC(=O)O)c1ccc(OCc2ccc3c(c2)OC(F)(F)O3)cc1` [Example 82, (S)-3-(4-((2,2-difluorobenzo[d][1,3]dioxol-5-yl)methoxy)phenyl)-3-(1-methyl-1H-imidazol-2-yl)propanoic acid], the pEC50 was 6.00 to 7.00.

`CC1(C)CCC(C)(C)c2cc(COc3ccc([C@@H](/C=C/Cc4ccccc4)CC(=O)O)cc3)ccc21` [Example 83, (R,E)-6-Phenyl-3-(4-((5,5,8,8-tetramethyl-5,6,7,8-tetrahydronaphthalen-2-yl)methoxy)phenyl)hex-4-enoic acid]: the pEC50 was 5.00 to 6.00.

In the case of `CC1(C)CCC(C)(C)c2cc(COc3ccc([C@H](/C=C/Cc4ccccc4)CC(=O)O)cc3)ccc21` [Example 84, (S,E)-6-Phenyl-3-(4-((5,5,8,8-tetramethyl-5,6,7,8-tetrahydronaphthalen-2-yl)methoxy)phenyl)hex-4-enoic acid], the pEC50 is 5.00 to 6.00.

Turning to `Cn1ccnc1[C@@H](CC(=O)O)c1ccc(OCc2ccc3c(c2)OCCO3)cc1` [Example 86, (S)-3-(4-((2,3-Dihydrobenzo[b][1,4]dioxin-6-yl)methoxy)phenyl)-3-(1-methyl-1H-imidazol-2-yl)propanoic acid], the pEC50 was 5.00 to 6.00.
